From patent US20100137261A1, “Method for treating aortic stenosis with non-antibacterial tetracycline formulations” (priority 2004, published 2010)
Structures can show the parent of a compound that is named as a salt. Where two headings read alike, the source gives them in different places.

Tests used:
[1] = test system: matrix metalloproteinase-9 (MMP-9) synthesis; experiment: Stenotic valve tissue culture, gelatinase (MMP-2 and MMP-9) assay; format: cell-based
Protocol: The study was conducted using tissue collected from four surgically removed, stenotic tricuspid valves. […] Gelatinases (MMP-2 and MMP-9) from the valve tissue samples were assayed. The analyzed bands were related to the total protein measured using a Bio-Rad DC Protein Assay Kit (Bio-Rad, Hercules, Calif.).

[2] = Serum levels after oral dosing in humans; settings: dose of about 10 to about 20 mg/day
[3] = single dose of two 100 mg minocycline HCl tablets, adult human; cited from earlier work
[4] = 250 mg tetracycline HCl every six hours over a twenty-four hour period; cited from earlier work
[5] = 1 μM, stenotic tricuspid valve tissue incubated for ten days

NC(=O)C1=C(O)C[C@@H]2C[C@@H]3Cc4cccc(O)c4C(=O)C3=C(O)[C@]2(O)C1=O [CMT-3, 6-demethyl-6-deoxy-4-de(dimethylamino)tetracycline]
MMP-9 inhibitory effect [1]: inhibitory effect was seen
comparative efficiency of impact on MMP-9 synthesis [1]: most efficient inhibitor of MMP-9 synthesis
expression of MMP-9 / MMP-9 synthesis [1]: decreased significantly from day 6 to the end of the culture
serum levels in humans [2]: about 1.0 μg/ml

CC1c2cccc(O)c2C(=O)C2=C(O)C3(O)C(=O)C(C(N)=O)=C(O)CC3C(O)C21 (stereo not drawn) [CMT-8, 4-dedimethylaminodoxycycline]
MMP-9 inhibitory effect [1, 5]: inhibitory effect was seen

CN(C)c1ccc(O)c2c1C[C@H]1C[C@H]3[C@H](N(C)C)C(O)=C(C(N)=O)C(=O)[C@@]3(O)C(O)=C1C2=O [minocycline HCl]
minocycline serum level (average) [3]: 2.24 µg/mL

CN(C)[C@@H]1C(O)=C(C(N)=O)C(=O)[C@@]2(O)C(O)=C3C(=O)c4c(O)cccc4[C@@](C)(O)[C@H]3C[C@@H]12 [tetracycline HCl]
peak plasma concentration [4]: approximately 3 μg/ml

CN(C)[C@@H]1C(O)=C(C(N)=O)C(=O)[C@@]2(O)C(O)=C3C(=O)c4c(O)cccc4[C@@](C)(O)[C@H]3C[C@@H]12 [tetracycline]
MMP-9 inhibitory effect [1, 5]: no significant inhibitory effect
expression of MMP-9 / MMP-9 synthesis ([1]; 30 μM, stenotic tricuspid valve tissue incubated for ten days): had an inhibitory effect on MMP-9 synthesis, but only at the end of the culture
